Experimental data published in patent US20240299354A1, “COMPOSITIONS AND METHODS FOR TREATING CANCER” (The Regents of the University of Michigan, priority 2021, published 2024).

Assays:
[1] = system: tumor cells; test: tumor receptivity to CTL-killing in vitro; type: cell-based; conditions: FIG. 9g as printed
[2] = system: tumor cells; conditions: reference 46; cited from earlier work
[3] = system: 4T1 tumors; test: therapeutic experiments in 4T1 tumor bearing BALB/cJ mice (tumor volume, tumor weight); type: in vivo, mouse; conditions: anti-PD-L1 and combination experiment
Protocol: Six to eight week-old female BALB/cJ mice were purchased from The Jackson Laboratory. The work was approved by the Institutional Animal Care and Use Committee at the University of Michigan. Slc6a14^−/− and Slc6a14^+/+ 4T1 tumor cells were inoculated into the fourth right mammary fat pad of BALB/cJ mice. Tumor size was measured every three days using calipers fitted with Vernier scale. Tumor volume (TV) was calculated using the formula: TV=0.5×L×W^2. In some cases, single cell suspensions were made from spleen and tumor tissues for immune phenotype and function analysis.
(§1) For the therapeutic experiments, 2*10^4 4T1 cells were inoculated into the fourth right mammary fat pad of BALB/cJ mice. On day 3, mice were treated (i.p.) with 200 μg of anti-PD-L1 (Bio X Cell) every 3 days, and/or with 250 μg of 4-HAP (i.p., 278564, Sigma) every other day, and/or α-MT (2 mg/mL, M8377, Sigma) in drinking water. Tumor diameters were measured using calipers.

[4] = system: T47D cells; test: perforin and granzyme B-induced tumor cell death; type: cell-based, human; conditions: FOXO1 knocked down T47D cells, FIG. 4h
Protocol: Tumor cells were exposed to hypoxia for 24 hours, or the indicated conditions. Then, tumor cells were co-incubated with perform (APB317Hu01, Cloud-Clone) and granzyme B (2906-SE-010, R&D system) for 10 minutes. PI (10 μg/ml) was added into the culture. PI^+ cells were measured by flow cytometry.

[5] = system: 4T1 tumors; test: tumor stiffness in vivo by atomic force microscopy; set-up: species or system mouse; conditions: FIG. 5f
Protocol: as §1
AFM was used to measure tumor tissue stiffness in vivo. MFP-3D AFM (Asylum Research, Santa Barbara, CA) combined with a Nikon Ti inverted optical microscope (Nikon, Melville, NY) was used to optically align the probe to the cells. The probes used in this study were MCST-AUHW (Bruker, Camarillo, CA) with a nominal spring constant of 0.03 N/m. […] To eliminate the confounding effects of neighboring cells on cytoskeleton arrangement and morphology, single cells were measured.
For in vivo tumor cell stiffness detection, fresh tumor tissues were excised and prepared immediately as frozen slices. […] The deflection sensitivity was determined in fluid using glass substrates as an infinitely stiff reference material. AFM at room temperature involved recording up to 6×6 point grids (36 force-displacement curves per map) was recorded. […] Force curves were analyzed using the Oliver and Pharr method. Tumor stiffness was determined and expressed as log 10 (pascal) per site. At least 24 sites per tumor tissue were analyzed.

[6] = system: 4T1 tumors; test: Myh9 and Mylk expression in 4T1 tumors of treated mice (real-time PCR, immunoblots); set-up: species or system mouse; conditions: in vivo, α-MT in drinking water
Protocol: as §1
Total RNA was extracted using TRIzol™ Reagent (ThermoFisher Scientific, USA). RNA was quantified by using NanoDrop spectrophotometer. Reverse transcription of the total cellular RNA was carried out using oligo (dT) primers and M-MLV reverse transcriptase (ThermoFisher Scientific, USA). RT-PCR primers are listed (Table 6). PCR was performed using QuantStudio 3 Real-time PCR system (Appliedbiosystems, Thermo Fisher Scientific, USA).
Cell lysates were prepared in RIPA buffer (Thermo Fisher Scientific, USA). The protein concentrations of cell lysates were determined by BCA protein assay kit (Thermo Scientific, USA). Equivalent amounts of total cellular protein were separated by SDS PAGE and transferred to PVDF membranes. The proteins were detected with specific antibodies (Table 7) and developed using ChemiDoc™ Imaging System (Bio-Rad, USA).

[7] = system: 4T1 cells; test: 4T1 cell stiffness in vitro, Optical Tweezers Microscopy; type: cell-based, mouse; conditions: FIG. 8c
Protocol: OTM was established to measure tumor cell stiffness. A modular OTM (Thorlabs—OKBT) was adapted for axial cell indentation and force measurement. Briefly, a collimated laser beam (YLM-5-IPG Photonics—Yb fiber laser 1064 nm) was focused through a 100× objective (Nikon, N.A.=1.25, oil immersion) to produce a stable optical trap for 3 μm diameter silica microbeads (Bangs Laboratories) dispersed in the medium. During data acquisition, the cells were maintained at 37° C. by an integrated temperature controller unit (RS Components). The sample was imaged through the trapping objective and a tube lens by a CMOS camera (Thorlabs—DCC1240C). A microbead probe was individually trapped and positioned above the cell nucleus area of a selected cell using a piezoelectric NanoMax 3-axis flexure stage (Thorlabs). The position of the microbead in the trap was tracked by back focal plane interferometry method using the laser light scattered by the trapped bead. The trap height was in the range 3-6 μm from the cover-slip. The trap stiffness was calculated using the equipartition theorem and the power spectrum density methods considering the stiffness variations due to spherical aberrations and neighborhood of the cover-slip. […] Tumor cell stiffness was determined and expressed as […] per site. At least 15 cells per condition were analyzed.

[8] = target: T1, SLC6A14 (Homo sapiens, UniProt Q9UN76); conditions: reference 41; cited from earlier work
T1 sequence (Q9UN76 1-642): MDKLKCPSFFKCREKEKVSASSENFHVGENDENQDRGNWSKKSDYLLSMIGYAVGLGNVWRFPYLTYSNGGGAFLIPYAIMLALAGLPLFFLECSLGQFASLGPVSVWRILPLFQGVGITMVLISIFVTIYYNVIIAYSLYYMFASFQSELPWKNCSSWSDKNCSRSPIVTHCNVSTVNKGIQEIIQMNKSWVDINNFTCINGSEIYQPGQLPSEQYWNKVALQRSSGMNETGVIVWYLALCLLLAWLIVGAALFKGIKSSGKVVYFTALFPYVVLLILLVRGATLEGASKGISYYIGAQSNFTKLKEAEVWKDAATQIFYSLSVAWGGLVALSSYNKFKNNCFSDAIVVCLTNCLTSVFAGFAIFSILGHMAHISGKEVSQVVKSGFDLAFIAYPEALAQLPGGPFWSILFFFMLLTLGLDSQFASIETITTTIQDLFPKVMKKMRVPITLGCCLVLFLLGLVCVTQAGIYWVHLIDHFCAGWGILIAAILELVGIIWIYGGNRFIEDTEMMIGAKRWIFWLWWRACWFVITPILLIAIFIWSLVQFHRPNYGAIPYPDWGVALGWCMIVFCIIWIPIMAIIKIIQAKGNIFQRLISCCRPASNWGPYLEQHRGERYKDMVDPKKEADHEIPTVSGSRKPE

CC(=O)c1ccc(O)cc1 [4-HAP, 4′-Hydroxyacetophenone]
tumor receptivity to CTL-killing [1]: promote | stiffening of tumor cells [2]: can stiffen tumor cells | 4T1 tumor progression / tumor growth ([3]; 4-HAP, tumor weights and volume, FIG. 5k-l): partially slowed down | perforin and granzyme B-induced T47D cell death [4]: rescued

CC(N)(Cc1c[nH]c2ccccc12)C(=O)O (racemic) [α-MT, α-methyl-DL-tryptophan]
4T1 tumor cell stiffness in vivo [5]: increased | levels of Myh9 and Mylk proteins in 4T1 tumors ([6]; immunoblots, FIG. 5e): reduced levels | levels of Myh9 and Mylk transcripts in 4T1 tumors ([6]; real-time PCR, FIG. 5d): reduced levels | 4T1 cell stiffness [7]: enhanced | 4T1 tumor progression / tumor growth ([3]; α-MT, tumor volumes and weight, FIG. 5i-j): partially and similarly slowed down | inhibition of SLC6A14 [8]: functionally inhibits
